In patent publication US9546129B2, “DTPA prodrugs, compositions thereof, and methods of using the same” (priority 2012, dated 2017):

How the values were obtained:
^241Am contaminated rats = test: Once vs twice daily dosing ^241Am decorporation study in rats; format: in vivo, Sprague Dawley rat; conditions: for Total Decorporation: seven days after IM ^241Am
Experimental: The animal study was conducted according to a protocol approved by The University of North Carolina at Chapel Hill Institutional Animal Care and Use Committee. Sixteen male Sprague Dawley rats were contaminated with ^241Am(NO3)3 (0.25 μCi) by intramuscular injection (0.1 mL, 0.1 M HNO3) into the right hind leg, under isoflurane anesthesia. Immediately after injection, body weights were recorded (Day 0 weight) and animals placed in individual metabolic cages. The 16 rats were assigned to four groups; untreated control, 5 daily oral gavage doses of 600 mg/kg C2E2 once daily, 5 days of oral gavage treatment of 300 mg/kg C2E2 twice daily or 5 daily intravenous doses of Zn-DTPA solution (13.3 mg/kg) via a jugular vein catheter. The C2E2 was from Lot 050 obtained using Method 2. The C2E2 dosing solution utilized was a 10% w/w solution in water. […] Excreted urine and feces were collected at 2, 4, 8, 10, 12, 14, 18, 20 and 24 hours after the first dose and daily for the remainder of the study. The samples were transferred to 20 mL scintillation vials, weighed and placed in a gamma counter (Wizard2 2480, Perkin Elmer) for detection of ^241Am gamma activity. In addition, following necropsy, selected tissues were removed, weighed and placed in a gamma counter (Wizard2 2480, Perkin Elmer) for detection of ^241Am gamma activity. The total amount of ^241Am administered to the animals was determined by quantifying the 59.7 keV photons emitted by ^241Am in duplicate aliquots (100 μL) of the injection solution using a gamma counter (wizard series, Perkin-Elmer). A counting window from 40-80 keV and a 60-second counting time were used for acquisition and each reading was corrected for background at acquisition. All experimental tissues and samples were counted using the same gamma counter and protocol. For all the samples, ^241Am content was expressed as a percentage of the initial dose. The femur from the leg opposite to the injection site was scaled by a factor of 20 to estimate total skeletal ^241Am burden.

Caco-2 cells = test: Caco-2 transport study (apical to basolateral); format: in vitro ADME, human
Experimental: (§1) Caco-2 cells are a human colon epithelial cancer cell line that expresses transporters, efflux proteins and phase II enzymes and can be used to correlate cell permeability with drug absorption. In addition to determining the apparent permeability coefficient, an estimation of C2E2 metabolism during transport can be obtained. The aim of these preliminary studies was to evaluate a range of C2E2 concentrations (25, 50 & 100 μM) in order to determine a linear concentration range in which further studies could be performed.
(§2) Caco-2 cells (passage #39) were cultured in 75 cm^2T-flasks at 37° C. in a 5% CO2 constant humidity environment. The medium was replaced 3 times a week and the monolayers were sub-cultured to passage #41. When plating the cells 0.5 mL of a 120,000 cells/mL suspension was added to each apical (AP) compartment of the first and then 1.5 mL of cell culture medium was placed into the basolateral (BL) compartment of the Transwells®. Following 21-24 days on the Transwell® plates with media changes 2-3 times a week the Caco-2 transport studies were performed.
(§3) Prior to the transport experiments the transport medium was warmed to 37° C. Transport medium consisted of Hank's Balanced Salt Solution (HBSS) (1×) with calcium and magnesium 500 mL with the addition of 1M HEPES buffer (5 mL) and 1.25M D-Glucose solution in HBSS (10 mL). The cell culture medium was removed from the Transwells® to be used for the experiment and each well was washed twice with warm transport medium. The Transwells® were then pre-incubated for 30 min with transport medium. Finally, the trans-epithelial resistance (TEER) values for each Transwell® were measured using a voltohmmmeter and chopstick electrode. The TEER values should be in the range of 300-750 and should vary as little as possible. Dosing solutions were prepared in warm (37° C.) transport medium. […] The concentration of C2E2 was then determined by LC-MS/MS. The concentration of the dosing solutions was also measured to determine the concentration in the donor compartment at time zero. […]

[1] = Caco-2 transport study (apical to basolateral); format: in vitro ADME, human; conditions: human, Caco-2; apical to basolateral; read-out: Apparent permeation coefficient
Experimental: as §1, §2, §3

CCOC(=O)CN(CCN(CCN(CC(=O)O)CC(=O)OCC)CC(=O)O)CC(=O)O [C2E2, 6,9-bis(carboxymethyl)-3-(2-ethoxy-2-oxoethyl)-11-oxo-12-oxa-3,6,9-triazatetradecan-1-oic acid]
Effect of dividing the dosage (twice daily vs once daily) on total decorporation (^241Am contaminated rats; 300 mg/kg BD vs 600 mg/kg OD, male rats): did not significantly alter total decorporation
Total Decorporation (^241Am contaminated rats; C2E2 300 mg/kg oral gavage twice daily for 5 days, male rats): 43.6 ± 1.6 % of injected dose
Total Decorporation (^241Am contaminated rats; C2E2 600 mg/kg oral gavage once daily x5, male rats): 39.7 ± 2.6 % of injected dose
Percentage of dose detected in the receiving compartment (Caco-2 cells; apical to basolateral, 25, 50 & 100 μM, two hours): 18-22%
Predicted absorption in humans (Caco-2 cells; from Caco-2 Papp using data of Shiyin Yee): 20-70%
Papp A→B at 120 min [1]: 4.88 ×10⁻⁶ cm/s
